In the first experiment the target is T1, CKα1 (Homo sapiens, UniProt P35790).
T1 construct: an N-terminally His-tagged truncated form of CKα1 (Δ75–457) was cloned into a pET-28a vector; His tag (N); made in house; host or cells: E. coli BL21 (DE3) Star
T1 sequence (P35790 75-457): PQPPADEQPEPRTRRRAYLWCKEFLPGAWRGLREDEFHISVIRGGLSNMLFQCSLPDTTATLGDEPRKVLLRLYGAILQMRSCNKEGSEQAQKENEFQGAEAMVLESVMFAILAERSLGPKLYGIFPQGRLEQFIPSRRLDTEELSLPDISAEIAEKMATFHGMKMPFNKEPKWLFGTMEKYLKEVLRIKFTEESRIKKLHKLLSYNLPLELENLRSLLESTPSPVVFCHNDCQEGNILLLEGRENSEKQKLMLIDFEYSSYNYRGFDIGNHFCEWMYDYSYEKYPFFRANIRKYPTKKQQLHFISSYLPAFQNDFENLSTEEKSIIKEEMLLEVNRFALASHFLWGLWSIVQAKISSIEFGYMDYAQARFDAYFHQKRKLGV
Description: Choline kinase assay ([methyl-14C]choline into PCho, purified enzyme). The experiment is classed as biochemical. Particulars: concentration required to inhibit CKα1 enzyme by 50%. The method, then:
The protein was produced and purified as previously described. Briefly, an N-terminally His-tagged truncated form of CKα1 (Δ75–457) was cloned into a pET-28a vector and expressed at 37 °C in E. coli BL21 (DE3) Star cells using 1 mM isopropyl β-D-1-thiogalactopyranoside (IPTG). After centrifugation, the cellular pellet was resuspended in 50 mM Tris-HCl pH 7.5, 500 mM NaCl, 0.2 mM phenylmethylsulphonyl fluoride (PMSF), DNase, and 0.5 mM β-mercaptoethanol, sonicated and subjected to a two-step purification procedure to isolate the target enzyme. […] Protein elution was completed using buffer A + 400 mM imidazole. A second size-exclusion chromatography step was then carried out to achieve complete purity. To this end, we used a HiPrep 26/60 Sephacryl 100 HR column (GE Healthcare, Little Chalfont, Buckinghamshire, UK) and a 20 mM Tris/HCl pH 7.5, 150 mM NaCl running buffer.
To study the effect of the compounds on CKα, an in vitro enzymatic assay was performed using the purified enzyme as previously reported in [19, 28, 29]. Briefly, the incorporation of ^14C from [methyl-^14C]choline into PCho in either the absence (control) or presence of different inhibitors at varying concentrations was used to determine the CK activity. The reaction mixture included 20 ng of purified CKα1, 10 mM ATP, 10 mM MgCl2, 100 mM Tris-HCl pH 8.5, and increasing concentrations of compounds. The mixture was preincubated at 37 °C for 5 min. Then, [methyl-^14C]choline chloride (1 mM, 4500 dpm/nmol) was added and the reaction was left to proceed for 10 min at 37 °C. The assay was stopped by immersing the reaction tubes in boiling water. PCho was separated by Thin Layer Chromatography using methanol/0.6% NaCl/28% NH4OH in water (50:50:5, v/v/v) as solvent. The radioactivity associated into PCho was determined in a Beckman 6000-TA (Madrid, Spain) liquid scintillation counter. The 50% inhibitory concentrations (IC50 values) were determined from the % enzyme activity at different concentrations of synthetic inhibitors relative to the control by using a sigmoidal dose–response curve (ED50plus v1.0 software).
For orientation: IC50 means the point on the concentration scale where inhibition reaches its midpoint. Low readings indicate inhibition by little substance, high ones a need for much substance. `[Br-].[Br-].c1cc2c(s1)c(N1CCCC1)nc[n+]2Cc1ccc(CCCCc2ccc(C[n+]3cnc(N4CCCC4)c4sccc43)cc2)cc1` [Ff-7] gave an IC50 of 8570 ± 2800 nM.

Staying with this experiment, now noted: purified CKα1, inhibitor 10 µM, end-point assay.
The % Inhibition is the change of the read-out against control, counted positive when it falls. A low value points to little suppression. For the compound `[Br-].[Br-].c1cc2c(s1)c(N1CCCC1)cc[n+]2Cc1ccc(OCCOc2ccc(C[n+]3ccc(N4CCCC4)c4sccc43)cc2)cc1` [Ff-2], the “% Inhibition at 10 µM” value is 77.41%.
In the case of `[Br-].[Br-].c1cc2c(s1)c(N1CCCC1)nc[n+]2Cc1ccc(CCCCc2ccc(C[n+]3cnc(N4CCCC4)c4sccc43)cc2)cc1` [Ff-7], the “% Inhibition at 10 µM” value is 89.95%.
For the compound `[Br-].[Br-].c1cc2c(s1)c(N1CCCC1)nc[n+]2Cc1ccc(OCCOc2ccc(C[n+]3cnc(N4CCCC4)c4sccc43)cc2)cc1` [Ff-8], the “% Inhibition at 10 µM” value turned out to be 79.23%.

The same experiment, now with this note: purified CKα1, inhibitor 30 µM, end-point assay.
For `[Br-].[Br-].c1cc2c(s1)c(N1CCCC1)cc[n+]2Cc1ccc(OCCOc2ccc(C[n+]3ccc(N4CCCC4)c4sccc43)cc2)cc1` [Ff-2], the “% Inhibition at 30 µM” value worked out at 82.77%.
For `[Br-].[Br-].c1cc2c(s1)c(N1CCCC1)nc[n+]2Cc1ccc(CCCCc2ccc(C[n+]3cnc(N4CCCC4)c4sccc43)cc2)cc1` [Ff-7], the “% Inhibition at 30 µM” value came to 95.88%.
With `[Br-].[Br-].c1cc2c(s1)c(N1CCCC1)nc[n+]2Cc1ccc(OCCOc2ccc(C[n+]3cnc(N4CCCC4)c4sccc43)cc2)cc1` [Ff-8], the “% Inhibition at 30 µM” value turned out to be 92.88%.

In a further experiment the test system is A549. Description: Antiproliferative activity, resazurin assay, 72 h.
Conditions: not given
The experiment is classed as cell-based, human. How it is done:
(§1) Human cervix carcinoma (HeLa), Non-small lung adenocarcinoma (A549), Colon adenocarcinoma (HT29), and human triple negative breast cancer (MDA-MB-231) were cultured in Dulbecco’s modified Eagle’s media (DMEM). B-acute lymphoblastic leukemia (RS4;11 and SEM), T-acute lymphoblastic leukemia (Jurkat), and human promyelocytic cells (HL-60), were cultured in RPMI-1640 medium. Both media were purchased from Gibco, Life Technologies (Milan, Italy) and supplemented with 10% Fetal Bovine Serum (FBS, Invitrogen, Milan, Italy,). Every six months, each cell line was checked for the presence of mycoplasma by RT-PCR.
(§2) Stock solutions (10 mM) of the different compounds were made in DMSO. Cancer cells were seeded in tissue-treated, flat bottom, 384-well plates (Corning) according to their optimal density, (A549 1000 cells/wells; MDA-MB-231, HeLa and HT-29 2000 cells/well and finally Jurkat, HL-60 SEM and RS4;11 20.000 cells/well) in 27 µL of complete medium per well.
(§3) The day after cell seeding and immediately before cell treatment, 10 mM stock solutions of the compounds were pre-diluted to a […] concentration in 250 µL of Hank’s in a 96-well plate (Corning). Subsequent 1:5 dilutions were carried out using a microlab STAR 96-CORE liquid handling system (Hamilton), a robotized liquid handling tool that was employed for all steps, from cell seeding to drug dilution and cell treatment to ensure high reproducibility while reducing time for large screening execution. This pre-dilution step was necessary to avoid DMSO-related cytotoxicity and compound precipitation in the cell culture medium. In every case, DMSO concentration never exceeded 0.1%.
(§4) Positive (Bortezomib 1 µM) and negative (0.1% DMSO) controls were included in all the screened plates to allow for monitoring the Z’ factor throughout the entire screening. Cells were treated with 3 µL of the previously made dilutions; thus, generating a 6-point 5-fold dose–response curve starting from 10 µM. Within a plate, each drug concentration was tested in duplicate in two independent experiments for each compound.
(§5) Treated cells were then placed inside the CO2 incubator for 72 h at 37 °C. Cell viability was assessed by resazurin assay, in which 3 µL of resazurin per well were added using the previously described automated platform. Plates were placed in the incubator at 37 °C for 2 h, and then the fluorescence of each plate was read using a Spark 10 M multimode microplate reader (Tecan Group Ltd., Mannedorf, Switzerland) with 535 nm excitation wavelength and 600 nm emission wavelength.
A general note: The colour change of resazurin is a common sign of viable cells or microbes.
Broadly, the GI50 is the concentration giving 50% growth inhibition. Low readings indicate greater sensitivity of the cells, high ones lower sensitivity of the cells. For the compound `[Br-].[Br-].c1cc2c(s1)c(N1CCCC1)cc[n+]2Cc1ccc(OCCOc2ccc(C[n+]3ccc(N4CCCC4)c4sccc43)cc2)cc1` [Ff-2], halving of growth (GI50) required 1060 ± 100 nM.
On the same count and under the same terms, the value for `[Br-].[Br-].c1cc2c(s1)c(N1CCCC1)nc[n+]2Cc1ccc(CCCCc2ccc(C[n+]3cnc(N4CCCC4)c4sccc43)cc2)cc1` [Ff-7] was 210 ± 30 nM; that for `[Br-].[Br-].c1cc2c(s1)c(N1CCCC1)nc[n+]2Cc1ccc(OCCOc2ccc(C[n+]3cnc(N4CCCC4)c4sccc43)cc2)cc1` [Ff-8] was 290 ± 300 nM.

The subject of the next experiment is HL-60. Description: Antiproliferative activity, resazurin assay, 72 h. The experiment is classed as cell-based, human.
Conditions: not given
The method, then:
as §1, §2, §3, §4, §5
Compound `[Br-].[Br-].c1cc2c(s1)c(N1CCCC1)cc[n+]2Cc1ccc(OCCOc2ccc(C[n+]3ccc(N4CCCC4)c4sccc43)cc2)cc1` [Ff-2] showed a 50% growth inhibitory concentration (GI50) of 2140 ± 100 nM.
With `[Br-].[Br-].c1cc2c(s1)c(N1CCCC1)nc[n+]2Cc1ccc(CCCCc2ccc(C[n+]3cnc(N4CCCC4)c4sccc43)cc2)cc1` [Ff-7], the concentration for 50% growth inhibition (GI50) amounted to 400 ± 50 nM.
In the case of `[Br-].[Br-].c1cc2c(s1)c(N1CCCC1)nc[n+]2Cc1ccc(OCCOc2ccc(C[n+]3cnc(N4CCCC4)c4sccc43)cc2)cc1` [Ff-8], the GI50 turned out to be 550 ± 20 nM.

The test system of another experiment is HT29. Description: Antiproliferative activity, resazurin assay, 72 h. The experiment is classed as cell-based, human.
Conditions: not given
How it is done:
as §1, §2, §3, §4, §5
`[Br-].[Br-].c1cc2c(s1)c(N1CCCC1)cc[n+]2Cc1ccc(OCCOc2ccc(C[n+]3ccc(N4CCCC4)c4sccc43)cc2)cc1` [Ff-2] displayed a 50% growth inhibitory concentration (GI50) above 10000 nM.
Turning to `[Br-].[Br-].c1cc2c(s1)c(N1CCCC1)nc[n+]2Cc1ccc(CCCCc2ccc(C[n+]3cnc(N4CCCC4)c4sccc43)cc2)cc1` [Ff-7], the GI50 came out at 1480 ± 40 nM.
For `[Br-].[Br-].c1cc2c(s1)c(N1CCCC1)nc[n+]2Cc1ccc(OCCOc2ccc(C[n+]3cnc(N4CCCC4)c4sccc43)cc2)cc1` [Ff-8], the GI50 was 1890 ± 200 nM.

The subject of a further experiment is HeLa. Put plainly: Antiproliferative activity, resazurin assay, 72 h. Format: cell-based, human.
Conditions: not given
How it is done: as §1, §2, §3, §4, §5
Turning to `[Br-].[Br-].c1cc2c(s1)c(N1CCCC1)cc[n+]2Cc1ccc(OCCOc2ccc(C[n+]3ccc(N4CCCC4)c4sccc43)cc2)cc1` [Ff-2], it took 3260 ± 400 nM to inhibit growth by half (GI50).
Take `[Br-].[Br-].c1cc2c(s1)c(N1CCCC1)nc[n+]2Cc1ccc(CCCCc2ccc(C[n+]3cnc(N4CCCC4)c4sccc43)cc2)cc1` [Ff-7]: the GI50 turned out to be 870 ± 50 nM.
The compound `[Br-].[Br-].c1cc2c(s1)c(N1CCCC1)nc[n+]2Cc1ccc(OCCOc2ccc(C[n+]3cnc(N4CCCC4)c4sccc43)cc2)cc1` [Ff-8] gave a GI50 of 910 ± 90 nM.

A further experiment has as its system Jurkat. Put plainly: Antiproliferative activity, resazurin assay, 72 h.
Conditions: not given
Format: cell-based, human. The method, then:
as §1, §2, §3, §4, §5
Turning to `[Br-].[Br-].c1cc2c(s1)c(N1CCCC1)cc[n+]2Cc1ccc(OCCOc2ccc(C[n+]3ccc(N4CCCC4)c4sccc43)cc2)cc1` [Ff-2], the concentration for 50% growth inhibition (GI50) was above 10000 nM.
Still for that read-out and setting: the value for `[Br-].[Br-].c1cc2c(s1)c(N1CCCC1)nc[n+]2Cc1ccc(CCCCc2ccc(C[n+]3cnc(N4CCCC4)c4sccc43)cc2)cc1` [Ff-7] was 8610 ± 1300 nM.
On the same count and under the same terms, the value for `[Br-].[Br-].c1cc2c(s1)c(N1CCCC1)nc[n+]2Cc1ccc(OCCOc2ccc(C[n+]3cnc(N4CCCC4)c4sccc43)cc2)cc1` [Ff-8] was above 10000 nM.

For the next experiment, the system named is MDA-MB-231. Put plainly: Antiproliferative activity, resazurin assay, 72 h. Format: cell-based, human.
Conditions: not given
The method, then:
as §1, §2, §3, §4, §5
Take `[Br-].[Br-].c1cc2c(s1)c(N1CCCC1)cc[n+]2Cc1ccc(OCCOc2ccc(C[n+]3ccc(N4CCCC4)c4sccc43)cc2)cc1` [Ff-2]: growth was halved (GI50) at 1430 ± 200 nM.
`[Br-].[Br-].c1cc2c(s1)c(N1CCCC1)nc[n+]2Cc1ccc(CCCCc2ccc(C[n+]3cnc(N4CCCC4)c4sccc43)cc2)cc1` [Ff-7]: halving of growth (GI50) required 470 ± 40 nM.
Turning to `[Br-].[Br-].c1cc2c(s1)c(N1CCCC1)nc[n+]2Cc1ccc(OCCOc2ccc(C[n+]3cnc(N4CCCC4)c4sccc43)cc2)cc1` [Ff-8], the GI50 stood at 320 ± 50 nM.

In a further experiment the test system is RS 4;11. Put plainly: Antiproliferative activity, resazurin assay, 72 h.
Conditions: not given
Format: cell-based, human. How it is done:
as §1, §2, §3, §4, §5
Compound `[Br-].[Br-].c1cc2c(s1)c(N1CCCC1)cc[n+]2Cc1ccc(OCCOc2ccc(C[n+]3ccc(N4CCCC4)c4sccc43)cc2)cc1` [Ff-2] yielded a concentration for 50% growth inhibition (GI50) above 10000 nM.
In the case of `[Br-].[Br-].c1cc2c(s1)c(N1CCCC1)nc[n+]2Cc1ccc(CCCCc2ccc(C[n+]3cnc(N4CCCC4)c4sccc43)cc2)cc1` [Ff-7], the GI50 is 2330 ± 300 nM.
Turning to `[Br-].[Br-].c1cc2c(s1)c(N1CCCC1)nc[n+]2Cc1ccc(OCCOc2ccc(C[n+]3cnc(N4CCCC4)c4sccc43)cc2)cc1` [Ff-8], the GI50 was 3470 ± 300 nM.

A further experiment relates to SEM cells. Description: Antiproliferative activity, resazurin assay, 72 h. Format: cell-based, human.
Conditions: not given
How it is done:
as §1, §2, §3, §4, §5
Compound `[Br-].[Br-].c1cc2c(s1)c(N1CCCC1)cc[n+]2Cc1ccc(OCCOc2ccc(C[n+]3ccc(N4CCCC4)c4sccc43)cc2)cc1` [Ff-2] returned a GI50 above 10000 nM.
In turn, `[Br-].[Br-].c1cc2c(s1)c(N1CCCC1)nc[n+]2Cc1ccc(CCCCc2ccc(C[n+]3cnc(N4CCCC4)c4sccc43)cc2)cc1` [Ff-7] showed a GI50 of 2930 ± 200 nM.
`[Br-].[Br-].c1cc2c(s1)c(N1CCCC1)nc[n+]2Cc1ccc(OCCOc2ccc(C[n+]3cnc(N4CCCC4)c4sccc43)cc2)cc1` [Ff-8] came in with a GI50 above 10000 nM.

The record behind these values is paper PMC9032693, “Biological Evaluation of New Thienopyridinium and Thienopyrimidinium Derivatives as Human Choline Kinase Inhibitors” (Pharmaceutics, 2022).
